Measurements taken from patent EP3760185A1, “COSMETIC COMPOSITION TO PREVENT AND DELAY SKIN AGING” (Riccio, Rodolfo, priority 2019, dated 2021).

Tested on: actin
Assay: polymerization of actin (in vitro test)
Format: cell-based
Settings: compared to control
From the text: Typically, the selected or purified maltodextrins described herein have the following properties: • a moisturizing and gelling (film-forming) action; • a stimulating action of fibroblasts and keratinocytes proliferation, responsible for the formation of granulation tissue and producers of collagen, elastin, proteoglycans, and other glycoproteins that intervene in the tissue regeneration phase • a skin regenerating action, found with representative in vitro tests such as synthesis of fibronectin, polymerization of actin, expression of enzymes such as Hyaluronan Synthase-2 • a skin protective action following the formation of an epidermal barrier

phosphatidic acid [PA]
polymerization of actin increase: 100%
